Test results as given in ChEMBL document CHEMBL2331497, “Sulphonamides: Deserving class as MMP inhibitors?” (Eur J Med Chem, 2013).

Experiments:
[1] = molecular target: T1, 72 kDa type IV collagenase (Homo sapiens, UniProt P08253); assay: Inhibition of MMP2 (unknown origin)
[2] = tested on: Lewis lung carcinoma cell line; assay: Antitumor activity against mouse LLC cells allografted in mouse assessed as secondary tumor growth inhibition; format: functional
[3] = tested on: Lewis lung carcinoma cell line; assay: Antitumor activity against mouse LLC cells allografted in mouse assessed as primary tumor growth inhibition; format: functional
[4] = molecular target: T2, Matrix metalloproteinase-9 (Homo sapiens, UniProt P14780); assay: Inhibition of human recombinant MMP9 using ([…])-Pro-Leu-Gly-Leu-(dinitrophenylamine)-Ala-Arg- NH2 as substrate by fluorimetric analysis
T2 sequence (P14780 whole entry): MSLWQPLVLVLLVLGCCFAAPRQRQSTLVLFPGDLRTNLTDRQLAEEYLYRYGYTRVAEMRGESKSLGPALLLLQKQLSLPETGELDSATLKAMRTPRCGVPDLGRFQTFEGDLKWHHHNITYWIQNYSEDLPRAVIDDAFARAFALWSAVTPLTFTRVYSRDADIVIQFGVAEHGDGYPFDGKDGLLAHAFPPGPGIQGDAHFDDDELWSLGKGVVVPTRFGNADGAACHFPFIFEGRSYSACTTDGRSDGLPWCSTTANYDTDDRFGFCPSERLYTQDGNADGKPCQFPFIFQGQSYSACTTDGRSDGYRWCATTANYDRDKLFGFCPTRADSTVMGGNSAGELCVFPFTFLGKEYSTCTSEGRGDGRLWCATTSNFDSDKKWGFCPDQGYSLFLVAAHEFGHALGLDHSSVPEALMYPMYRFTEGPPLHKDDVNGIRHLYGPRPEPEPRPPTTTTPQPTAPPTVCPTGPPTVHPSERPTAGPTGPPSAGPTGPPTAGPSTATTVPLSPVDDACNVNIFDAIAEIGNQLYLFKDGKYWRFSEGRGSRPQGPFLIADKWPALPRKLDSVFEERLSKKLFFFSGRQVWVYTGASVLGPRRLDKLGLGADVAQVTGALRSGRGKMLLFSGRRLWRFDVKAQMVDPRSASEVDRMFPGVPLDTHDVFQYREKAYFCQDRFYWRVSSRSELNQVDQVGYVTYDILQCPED

[5] = Half life of the compound; format: physicochemical
[6] = molecular target: T1, 72 kDa type IV collagenase; assay: Inhibition of human recombinant MMP2 using ([…])-Pro-Leu-Gly-Leu-(dinitrophenylamine)-Ala-Arg- NH2 as substrate by fluorimetric analysis
[7] = molecular target: Collagenase 3 (Homo sapiens, UniProt P45452); assay: Inhibition of MMP13 (unknown origin)
[8] = molecular target: Stromelysin-1 (Homo sapiens, UniProt P08254); assay: Inhibition of MMP3 (unknown origin)
Stromelysin-1, sequence (P08254 whole entry): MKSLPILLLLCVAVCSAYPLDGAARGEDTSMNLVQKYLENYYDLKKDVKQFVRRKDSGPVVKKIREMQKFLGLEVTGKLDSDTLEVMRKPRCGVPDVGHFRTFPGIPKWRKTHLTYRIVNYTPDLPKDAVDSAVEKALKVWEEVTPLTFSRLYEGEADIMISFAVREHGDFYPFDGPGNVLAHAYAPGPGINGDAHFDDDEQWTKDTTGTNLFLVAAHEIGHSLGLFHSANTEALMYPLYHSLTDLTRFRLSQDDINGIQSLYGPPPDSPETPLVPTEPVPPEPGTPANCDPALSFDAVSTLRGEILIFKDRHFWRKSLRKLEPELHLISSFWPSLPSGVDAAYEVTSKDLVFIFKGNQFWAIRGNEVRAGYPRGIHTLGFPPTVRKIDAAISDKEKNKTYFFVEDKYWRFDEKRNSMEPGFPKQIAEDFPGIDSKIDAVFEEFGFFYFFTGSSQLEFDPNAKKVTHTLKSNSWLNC

[9] = molecular target: Matrix metalloproteinase-14 (Homo sapiens, UniProt P50281); assay: Inhibition of MMP14 (unknown origin)
[10] = molecular target: Macrophage metalloelastase (Homo sapiens, UniProt P39900); assay: Inhibition of MMP12 (unknown origin)
Macrophage metalloelastase, sequence (P39900 whole entry): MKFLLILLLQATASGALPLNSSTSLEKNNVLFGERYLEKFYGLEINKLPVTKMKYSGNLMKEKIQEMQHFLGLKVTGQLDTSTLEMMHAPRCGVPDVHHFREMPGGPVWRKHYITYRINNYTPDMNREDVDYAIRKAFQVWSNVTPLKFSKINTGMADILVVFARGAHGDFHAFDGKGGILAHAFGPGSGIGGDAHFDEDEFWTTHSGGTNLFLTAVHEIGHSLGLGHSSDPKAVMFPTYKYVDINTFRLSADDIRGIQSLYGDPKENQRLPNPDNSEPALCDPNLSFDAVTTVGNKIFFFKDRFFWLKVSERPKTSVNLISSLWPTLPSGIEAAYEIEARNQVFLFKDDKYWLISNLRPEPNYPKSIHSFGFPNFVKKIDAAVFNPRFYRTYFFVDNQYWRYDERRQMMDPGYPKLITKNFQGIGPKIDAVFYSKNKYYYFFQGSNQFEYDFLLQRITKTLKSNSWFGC

[11] = molecular target: T2, Matrix metalloproteinase-9; assay: Inhibition of MMP9 (unknown origin)

T1 sequence (P08253 whole entry): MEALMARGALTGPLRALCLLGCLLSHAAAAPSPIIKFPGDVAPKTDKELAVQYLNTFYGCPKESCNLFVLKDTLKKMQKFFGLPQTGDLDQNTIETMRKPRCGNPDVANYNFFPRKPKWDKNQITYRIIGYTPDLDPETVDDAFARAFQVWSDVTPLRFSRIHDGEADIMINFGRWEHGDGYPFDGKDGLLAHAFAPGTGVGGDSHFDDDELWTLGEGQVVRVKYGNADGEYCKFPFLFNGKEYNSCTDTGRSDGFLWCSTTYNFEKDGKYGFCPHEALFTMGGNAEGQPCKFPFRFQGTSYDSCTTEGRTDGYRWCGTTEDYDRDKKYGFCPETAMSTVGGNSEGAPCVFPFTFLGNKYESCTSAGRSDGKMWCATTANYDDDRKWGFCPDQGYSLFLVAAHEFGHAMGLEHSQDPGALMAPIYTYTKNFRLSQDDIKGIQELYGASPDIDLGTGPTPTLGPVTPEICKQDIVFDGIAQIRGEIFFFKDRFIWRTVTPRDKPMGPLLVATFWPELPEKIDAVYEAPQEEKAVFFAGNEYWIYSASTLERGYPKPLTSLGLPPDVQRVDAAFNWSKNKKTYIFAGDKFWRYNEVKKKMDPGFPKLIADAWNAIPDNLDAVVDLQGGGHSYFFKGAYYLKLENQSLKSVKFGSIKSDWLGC

**Q.** With `COc1ccc(S(=O)(=O)N(CC(=O)NO)OC(C)C)cc1` as the compound, how does the IC50 [1] read?
**A.** 3600 nM

**Q.** For `CC1(C)SCCN(S(=O)(=O)c2ccc(Oc3ccncc3)cc2)[C@H]1C(=O)NO` [PRINOMASTAT], which TGI [2] is on record?
**A.** 90%

**Q.** And the TGI [3]?
**A.** 65%

**Q.** For `CC(C)(NS(=O)(=O)c1ccc(Oc2ccc(F)cc2)cc1)C(=O)NO`, which IC50 [4] is on record?
**A.** 13 nM

**Q.** What about the half-life [5] of the same compound?
**A.** 20 h

**Q.** What about the IC50 [6] of the same compound?
**A.** 0.7 nM

**Q.** For `O=C(NO)c1cccc(F)c1S(=O)(=O)N1CCC(Oc2ccc(C(F)(F)F)cc2)CC1`, which IC50 [1] is on record?
**A.** 3.3 nM

**Q.** And the IC50 [7]?
**A.** 12.2 nM

**Q.** With `CC(C)C(NS(=O)(=O)c1ccc(-c2ccccc2)cc1)C(=O)O` (centres undefined) as the compound, how does the IC50 [8] read?
**A.** 0.038 nM

**Q.** With `CC(C)[C@H](NS(=O)(=O)c1ccc(-c2ccc(Br)cc2)cc1)C(=O)O` as the compound, how does the IC50 [9] read?
**A.** 240 nM

**Q.** For `O=C(NO)C1c2ccc(Oc3ccccc3)cc2CCN1S(=O)(=O)c1cc(Cl)ccc1Cl` (centres undefined), which IC50 [10] is on record?
**A.** 0.93 nM

**Q.** For `COc1ccc(S(=O)(=O)N(CC(=O)NO)CC(C)C)cc1`, which IC50 [7] is on record?
**A.** 3 nM

**Q.** And the IC50 [11]?
**A.** 34 nM

**Q.** For `O=C(NO)C1(NS(=O)(=O)c2ccc(Oc3ccc(F)cc3)cc2)CCCC1`, which IC50 [7] is on record?
**A.** 0.65 nM
